This note sets out measurements from patent US20040037843A1, “Inducing cellular immune responses to prostate cancer antigens using peptide and nucleic acid compositions” (priority 2003, published 2004).

Experiment [1] deals with .221A2.1 peptide-loaded target cells and cells expressing endogenous antigen. In words: Primary in vitro CTL induction with peptide-pulsed DC, CTL lytic activity by 51Cr release. It counts as cell-based, human. Particulars: immunogenicity, positive/tested; for A2 peptide: CTL recognition of the peptide; for A2 native: CTL recognition of native (wild-type) target. On the procedure: Testing was performed using the following methodology:
Cells that express an antigen of interest, or transfectants comprising the gene encoding the antigen of interest, can be used as target cells to test the ability of peptide-specific CTLs to recognize endogenous antigen.
The monocytes are purified by plating 10×10^6 PBMC/well in a 6-well plate. After 2 hours at 37° C., the non-adherent cells are removed by gently shaking the plates and aspirating the supernatants. The wells are washed a total of three times with 3 ml RPMI to remove most of the non-adherent and loosely adherent cells. Three ml of complete medium containing 50 ng/ml of GM-CSF and 1,000 U/ml of IL-4 are then added to each well. TNFα is added to the DCs on day 6 at 75 ng/ml and the cells are used for CTL induction cultures on day 7.
Induction of CTL with DC and Peptide: CD8+ T-cells are isolated by positive selection with Dynal imnmunomagnetic beads (Dynabeads® M-450) and the detacha-bead® reagent. Typically about 200-250×10^6 PBMC are processed to obtain 24×10^6 CD8^+T-cells (enough for a 48-well plate culture). Briefly, the PBMCs are thawed in RPMI with 30 μg/ml DNAse, washed once with PBS containing 1% human AB serum and resuspended in PBS/1% AB serum at a concentration of 20×10^6 cells/ml. The magnetic beads are washed 3 times with PBS/AB serum, added to the cells (140 μl beads/20×10^6 cells) and incubated for 1 hour at 4° C. with continuous mixing. The beads and cells are washed 4× with PBS/AB serum to remove the nonadherent cells and resuspended at 100×10^6 cells/ml (based on the original cell number) in PBS/AB serum containing 100 μl/ml detacha-bead® reagent and 30 μg/ml DNAse. The mixture is incubated for 1 hour at room temperature with continuous mixing. The beads are washed again with PBS/AB/DNAse to collect the CD8+ T-cells. The DC are collected and centrifuged at 1300 rpm for 5-7 minutes, washed once with PBS with 1% BSA, counted and pulsed with 40 μg/ml of peptide at a cell concentration of 1-2×10^6/ml in the presence of 3 μg/ml β2-microglobulin for 4 hours at 20° C. The DC are then irradiated (4,200 rads), washed 1 time with medium and counted again.
Setting up induction cultures: 0.25 ml cytokine-generated DC (@1×10^5 cells/ml) are co-cultured with 0.25 ml of CD8+ T-cells (@2×10^6 cell/ml) in each well of a 48-well plate in the presence of 10 ng/ml of IL-7. Recombinant human IL10 is added the next day at a final concentration of 10 ng/ml and rhuman IL2 is added 48 hours later at 10 IU/mL.
Restimulation of the induction cultures with peptide-pulsed adherent cells: Seven and fourteen days after the primary induction the cells are restimulated with peptide-pulsed adherent cells. The PBMCS are thawed and washed twice with RPMI and DNAse. The cells are resuspended at 5×10^6 cells/ml and irradiated at ˜4200 rads. The PBMCs are plated at 2×10^6 in 0.5 ml complete medium per well and incubated for 2 hours at 37° C. The plates are washed twice with RPMI by tapping the plate gently to remove the nonadherent cells and the adherent cells pulsed with 10 μg/ml of peptide in the presence of 3 μg/ml β2 microglobulin in 0.25 ml RPMI/5% AB per well for 2 hours at 37° C. Peptide solution from each well is aspirated and the wells are washed once with RPMI. Most of the media is aspirated from the induction cultures (CD8+ cells) and brought to 0.5 ml with fresh media. The cells are then transferred to the wells containing the peptide-pulsed adherent cells. Twenty four hours later rhuman IL10 is added at a final concentration of 10 ng/ml and rhuman IL2 is added the next day and again 2-3 days later at 50 IU/ml (Tsai et al., Critical Reviews in Immunology 18(1-2):65-75, 1998). Seven days later the cultures are assayed for CTL activity in a ^51Cr release assay. In some experiments the cultures are assayed for peptide-specific recognition in the in situ IFNγ ELISA at the time of the second restimulation followed by assay of endogenous recognition 7 days later. […]

The next experiment has as its target HLA-A*0201 (Homo sapiens, UniProt P04439, D140Y/D185E/D98H/E176V/E277Q/G131W/G231S/I119V/I121R/I166T/I218V/L300P/L318F/N151K/N90K/P208A/P217A/Q86G/Q94H/R138H/R169H/T345S). In words: HLA class I binding assay, purified HLA, inhibition of 125I-labelled probe peptide. The note with it: Table XXII group headings ≦ 200 nM / > 200 nM, binding to HLA-A*0201.

Where two headings read alike, the source gives them in different places.

Take `CC(C)C[C@H](NC(=O)[C@H](CCC(=O)O)NC(=O)[C@H](CCCCN)NC(=O)[C@H](C)NC(=O)[C@H](CC(C)C)NC(=O)[C@@H](N)C(C)C)C(=O)N[C@@H](CCCCN)C(=O)N[C@@H](Cc1ccccc1)C(=O)N[C@H](C(=O)O)C(C)C` [Peptide 1097.17]: in experiment [1], the A2 peptide was 1/3.
Take `CC(C)C[C@H](NC(=O)[C@@H](N)Cc1ccccc1)C(=O)N[C@@H](CC(N)=O)C(=O)N[C@@H](CCC(=O)O)C(=O)N[C@@H](CO)C(=O)N[C@@H](Cc1ccc(O)cc1)C(=O)N[C@@H](CCCCN)C(=O)N[C@@H](Cc1c[nH]cn1)C(=O)N[C@@H](CCC(=O)O)C(=O)N[C@@H](CCC(N)=O)C(=O)N[C@H](C(=O)O)C(C)C` [PAP.92]: the IC50 on HLA-A*0201 (read-out: Binding affinity) is at most 200 nM.
On to `CSCC[C@H](NC(=O)CN)C(=O)N1CCC[C@H]1C(=O)N[C@@H](CCC(=O)O)C(=O)NCC(=O)N[C@@H](CC(=O)O)C(=O)N[C@@H](CC(C)C)C(=O)N[C@H](C(=O)N[C@@H](Cc1ccc(O)cc1)C(=O)N[C@H](C(=O)O)C(C)C)C(C)C` [Peptide 1129.04], for which the A2 peptide in experiment [1] is on record as 0/1.
As to `CC(C)C[C@H](NC(=O)[C@H](CO)NC(=O)[C@H](CCCNC(=N)N)NC(=O)[C@@H]1CCCN1C(=O)[C@H](CCCNC(=N)N)NC(=O)[C@H](CC(C)C)NC(=O)[C@@H](N)Cc1ccccc1)C(=O)N[C@@H](CCC(N)=O)C(=O)N[C@@H](CS)C(=O)N[C@H](C(=O)O)C(C)C` [Peptide 1419.07], the A2 peptide in experiment [1] was 1/3.
For `CSCC[C@H](N)C(=O)N[C@@H](CC(C)C)C(=O)N[C@@H](CC(C)C)C(=O)N[C@@H](CCCNC(=N)N)C(=O)N[C@@H](CC(C)C)C(=O)N[C@@H](CO)C(=O)N[C@@H](CCC(=O)O)C(=O)N1CCC[C@H]1C(=O)N[C@H](C(=O)O)C(C)C` [Peptide 1389.10], in experiment [1], the A2 native was 1/3 and the A2 peptide is 3/3.
For `CC(C)C[C@H](NC(=O)[C@H](CC(=O)O)NC(=O)[C@@H](NC(=O)[C@H](CS)NC(=O)[C@H](CCC(N)=O)NC(=O)[C@H](CC(C)C)NC(=O)[C@@H](N)CCCCN)C(C)C)C(=O)N[C@@H](Cc1c[nH]cn1)C(=O)N[C@H](C(=O)N[C@H](C(=O)O)C(C)C)C(C)C` [Peptide 1419.24], in experiment [1], the A2 native was 1/2 and the A2 peptide is 1/2.
Consider `CC(C)C[C@H](NC(=O)[C@@H](N)C(C)C)C(=O)N[C@H](C(=O)N[C@@H](Cc1c[nH]cn1)C(=O)N1CCC[C@H]1C(=O)N[C@@H](CCC(N)=O)C(=O)N[C@@H](Cc1c[nH]c2ccccc12)C(=O)N[C@H](C(=O)N[C@@H](CC(C)C)C(=O)N[C@H](C(=O)N[C@H](C(=O)O)C(C)C)[C@@H](C)O)C(C)C)C(C)C` [Peptide 1419.11], for which, in experiment [1], the A2 native is on record as 2/2 and the A2 peptide is 2/2.
In the case of `CC[C@H](C)[C@H](NC(=O)[C@H](Cc1ccc(O)cc1)NC(=O)[C@H](C)NC(=O)[C@@H](NC(=O)CNC(=O)[C@H](CCCNC(=N)N)NC(=O)[C@H](CCC(=O)O)NC(=O)[C@H](CCC(N)=O)NC(=O)[C@H](CC(C)C)NC(=O)[C@@H](N)CC(C)C)C(C)C)C(=O)O` [Peptide 1129.01], in experiment [1], the A2 peptide is reported as 3/3.
In the case of `CC[C@H](C)[C@H](NC(=O)[C@H](CC(=O)O)NC(=O)[C@H](Cc1ccccc1)NC(=O)[C@H](CC(C)C)NC(=O)[C@H](C)N)C(=O)N[C@@H](CCC(=O)O)C(=O)N[C@@H](CO)C(=O)N[C@@H](CCCCN)C(=O)N[C@H](C(=O)O)C(C)C` [Peptide 1129.08], the A2 peptide in experiment [1] is 2/2.
In the case of `CC(C)C[C@H](NC(=O)[C@H](Cc1c[nH]c2ccccc12)NC(=O)[C@H](Cc1ccccc1)NC(=O)[C@H](Cc1ccccc1)NC(=O)[C@H](CC(C)C)NC(=O)[C@@H](N)CC(C)C)C(=O)N[C@@H](CC(=O)O)C(=O)N[C@@H](CCCNC(=N)N)C(=O)N[C@@H](CO)C(=O)N[C@H](C(=O)O)C(C)C` [Peptide 1097.09], the A2 peptide in experiment [1] is on record as 3/3.
Turning to `CC(C)C[C@H](NC(=O)[C@H](C)N)C(=O)NCC(=O)N[C@H](C(=O)N[C@H](C(=O)N[C@@H](CS)C(=O)N[C@@H](Cc1ccc(O)cc1)C(=O)N[C@H](C(=O)O)C(C)C)[C@@H](C)O)[C@@H](C)O` [Peptide 1389.14], in experiment [1], the A2 native was 1/3 and the A2 peptide was 2/3.
In the case of `CC(C)C[C@H](NC(=O)[C@@H](N)CCCCN)C(=O)NCC(=O)N[C@@H](CO)C(=O)NCC(=O)N[C@@H](CC(N)=O)C(=O)N[C@@H](CC(=O)O)C(=O)N[C@@H](Cc1ccccc1)C(=O)N[C@@H](CCC(=O)O)C(=O)N[C@H](C(=O)O)C(C)C` [PSM.514], the IC50 on HLA-A*0201 (read-out: Binding affinity) is above 200 nM.
Take `CC(C)C[C@H](NC(=O)[C@H](CO)NC(=O)[C@H](CC(C)C)NC(=O)[C@H](CO)NC(=O)[C@H](C)NC(=O)[C@H](C)NC(=O)[C@H](CCCNC(=N)N)NC(=O)[C@H](C)NC(=O)[C@H](CC(C)C)NC(=O)[C@H](CC(C)C)NC(=O)[C@@H](N)CC(C)C)C(=O)O` [PAP.6]: the IC50 on HLA-A*0201 (read-out: Binding affinity) is at most 200 nM.
As to `CC(C)C[C@H](NC(=O)CN)C(=O)N[C@@H](CC(C)C)C(=O)NCC(=O)N[C@@H](CO)C(=O)N[C@H](C(=O)N[C@@H](CCC(=O)O)C(=O)N[C@@H](Cc1c[nH]c2ccccc12)C(=O)N[C@@H](C)C(=O)O)[C@@H](C)O` [PSM.427], the IC50 at HLA-A*0201 (read-out: Binding affinity) is above 200 nM.
Still for that read-out and setting: for `CC(C)C[C@H](NC(=O)[C@H](Cc1ccccc1)NC(=O)[C@H](Cc1ccccc1)NC(=O)CNC(=O)CNC(=O)[C@H](C)NC(=O)[C@H](CC(C)C)NC(=O)[C@@H](NC(=O)[C@@H](N)CC(C)C)C(C)C)C(=O)O` [PSM.26] the value was at most 200 nM; for `CC[C@H](C)[C@H](NC(=O)[C@H](Cc1ccccc1)NC(=O)[C@H](C)NC(=O)[C@H](CCCNC(=N)N)NC(=O)[C@H](CCC(=O)O)NC(=O)[C@H](CC(C)C)NC(=O)[C@H](Cc1ccccc1)NC(=O)[C@H](CCSC)NC(=O)[C@H](CC(C)C)NC(=O)[C@@H](N)CCC(N)=O)C(=O)O` [PSM.667], at most 200 nM.
As to `CC(C)C[C@H](NC(=O)[C@H](Cc1ccccc1)NC(=O)[C@H](Cc1ccccc1)NC(=O)CNC(=O)CNC(=O)[C@H](C)NC(=O)[C@H](CC(C)C)NC(=O)[C@@H](NC(=O)[C@H](CC(C)C)NC(=O)[C@H](C)N)C(C)C)C(=O)O` [PSM.25], the IC50 at HLA-A*0201 (read-out: Binding affinity) was above 200 nM.
In turn, `CC(C)C[C@H](NC(=O)[C@H](CC(C)C)NC(=O)CNC(=O)[C@H](CC(N)=O)NC(=O)[C@H](Cc1ccc(O)cc1)NC(=O)[C@@H](NC(=O)[C@H](CC(=O)O)NC(=O)[C@H](CC(C)C)NC(=O)[C@H](C)N)C(C)C)C(=O)O` [PAP.299] had an IC50 on HLA-A*0201 (Binding affinity) of at most 200 nM.
In the case of `CC(C)C[C@H](NC(=O)[C@@H](N)CC(C)C)C(=O)N[C@@H](Cc1c[nH]cn1)C(=O)N[C@@H](CCC(=O)O)C(=O)N[C@H](C(=O)N[C@@H](CC(=O)O)C(=O)N[C@@H](CO)C(=O)N[C@@H](C)C(=O)N[C@H](C(=O)O)C(C)C)[C@@H](C)O` [PSM.4], the IC50 at HLA-A*0201 (read-out: Binding affinity) was above 200 nM.
